Measured values: patent US7033812B2, “β-secretase and modulation of β-secretase activity” (Scios Inc., priority 1999, dated 2006)

System: neutral β-secretase activity
Test: β-secretase ELISA (βNTF) with partially purified APP/β-secretase mixture, pH 7.0
Assay type: biochemical, human

| Compound | β-secretase inhibition (pH 7) | detectable levels of β-secretase activity (cardiolipin 0.01–100 μM in assay buffer, pH 7.0, 37° C. 16 hours, FIG. 4A) |
| --- | --- | --- |
| NCCc1ccc(S(=O)(=O)F)cc1 [AEBSF] | dose-dependent β-secretase inhibition | – |
| cardiolipin | – | dose-dependent increase |
